In US20110136854A1, “NOVEL 9-AZA-BICYCLO[3.3.1]NON-3-YLOXY CHROMEN-2-ONE DERIVATIVES AND THEIR USE AS MONOAMINE NEUROTRANSMITTER RE-UPTAKE INHIBITORS” (NeuroSearch A/S, priority 2008, published 2011):
Counter-ions that a name gives are not always drawn. Like-named read-outs stand apart in the source and are kept apart here.

Assays:
Assay type in all cases: biochemical
[1] = target: T1, reuptake of serotonine (5-HT) in synaptosomes (Rattus norvegicus, UniProt P31652); assay: Inhibition of 5-HT reuptake in synaptosomes
T1 construct: serotonine (5-HT) in synaptosomes as described in WO 97/16451; from tissue
T1 sequence (P31652 whole entry): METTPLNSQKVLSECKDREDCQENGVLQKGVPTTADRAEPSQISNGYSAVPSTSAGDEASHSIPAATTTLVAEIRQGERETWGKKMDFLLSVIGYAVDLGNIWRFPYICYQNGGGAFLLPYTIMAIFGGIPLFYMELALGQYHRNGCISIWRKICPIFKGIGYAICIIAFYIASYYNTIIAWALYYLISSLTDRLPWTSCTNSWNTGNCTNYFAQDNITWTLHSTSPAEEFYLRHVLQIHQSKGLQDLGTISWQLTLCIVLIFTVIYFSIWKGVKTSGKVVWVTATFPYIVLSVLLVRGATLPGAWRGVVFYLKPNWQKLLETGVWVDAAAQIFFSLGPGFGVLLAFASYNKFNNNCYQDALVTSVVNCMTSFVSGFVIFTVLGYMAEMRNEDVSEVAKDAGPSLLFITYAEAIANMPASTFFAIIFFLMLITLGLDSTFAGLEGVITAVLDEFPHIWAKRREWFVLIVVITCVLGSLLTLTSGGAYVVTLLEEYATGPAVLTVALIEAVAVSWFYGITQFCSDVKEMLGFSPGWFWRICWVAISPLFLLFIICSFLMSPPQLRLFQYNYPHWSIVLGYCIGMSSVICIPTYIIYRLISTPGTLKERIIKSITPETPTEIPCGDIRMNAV
Text: (§1) Compounds of the invention may be tested for their ability to inhibit reuptake of the monoamines dopamine, noradrenaline and serotonin in synaptosomes e.g. such as described in WO 97/30997 (NeuroSearch NS) or WO 97/16451 (NeuroSearch A/S). Based on the balanced activity observed in these tests the compound of the invention is considered useful for the treatment, prevention or alleviation of a disease or a disorder or a condition of a mammal, including a human, which disease, disorder or condition is responsive to inhibition of monoamine neurotransmitter re-uptake in the central nervous system.
(§2) Compounds were tested for their ability to inhibit the reuptake of the mono-amine neurotransmitters dopamine (DA) noradrenaline (NA) and serotonine (5-HT) in synaptosomes as described in WO 97/16451 (NeuroSearch NS).
(§3) The test values are given as IC50 (the concentration (μM) of the test substance which inhibits the specific binding of ^3H-DA, ^3H-NA, or ^3H-5-HT by 50%).

[2] = target: T2, reuptake of dopamine (DA) in synaptosomes (Rattus norvegicus, UniProt P23977); assay: Inhibition of DA reuptake in synaptosomes; conditions: 3H-DA, read-out: DA-uptake IC50
T2 construct: in synaptosomes as described in WO 97/16451; from tissue
T2 sequence (P23977 whole entry): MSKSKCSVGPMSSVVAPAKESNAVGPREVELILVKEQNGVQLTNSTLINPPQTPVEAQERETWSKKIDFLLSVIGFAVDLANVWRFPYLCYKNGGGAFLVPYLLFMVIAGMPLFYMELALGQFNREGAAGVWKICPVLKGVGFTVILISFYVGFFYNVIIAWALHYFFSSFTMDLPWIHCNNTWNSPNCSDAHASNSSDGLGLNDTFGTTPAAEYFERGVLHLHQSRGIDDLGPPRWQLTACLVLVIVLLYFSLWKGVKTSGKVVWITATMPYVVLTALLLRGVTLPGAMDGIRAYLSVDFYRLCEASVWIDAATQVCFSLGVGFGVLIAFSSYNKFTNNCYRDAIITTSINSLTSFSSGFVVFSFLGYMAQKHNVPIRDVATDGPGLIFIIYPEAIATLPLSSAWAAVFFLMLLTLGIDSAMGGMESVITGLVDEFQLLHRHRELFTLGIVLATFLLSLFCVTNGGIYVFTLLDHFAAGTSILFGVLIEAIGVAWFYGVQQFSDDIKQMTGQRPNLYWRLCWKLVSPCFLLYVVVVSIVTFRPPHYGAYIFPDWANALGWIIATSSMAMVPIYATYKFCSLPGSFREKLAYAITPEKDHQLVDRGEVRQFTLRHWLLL
Text: as §1, §2, §3

[3] = target: T3, reuptake of noradrenaline (NA) in synaptosomes (Rattus norvegicus, UniProt Q63380); assay: Inhibition of NA reuptake in synaptosomes
T3 construct: in synaptosomes as described in WO 97/16451; from tissue
T3 sequence (Q63380 1-617): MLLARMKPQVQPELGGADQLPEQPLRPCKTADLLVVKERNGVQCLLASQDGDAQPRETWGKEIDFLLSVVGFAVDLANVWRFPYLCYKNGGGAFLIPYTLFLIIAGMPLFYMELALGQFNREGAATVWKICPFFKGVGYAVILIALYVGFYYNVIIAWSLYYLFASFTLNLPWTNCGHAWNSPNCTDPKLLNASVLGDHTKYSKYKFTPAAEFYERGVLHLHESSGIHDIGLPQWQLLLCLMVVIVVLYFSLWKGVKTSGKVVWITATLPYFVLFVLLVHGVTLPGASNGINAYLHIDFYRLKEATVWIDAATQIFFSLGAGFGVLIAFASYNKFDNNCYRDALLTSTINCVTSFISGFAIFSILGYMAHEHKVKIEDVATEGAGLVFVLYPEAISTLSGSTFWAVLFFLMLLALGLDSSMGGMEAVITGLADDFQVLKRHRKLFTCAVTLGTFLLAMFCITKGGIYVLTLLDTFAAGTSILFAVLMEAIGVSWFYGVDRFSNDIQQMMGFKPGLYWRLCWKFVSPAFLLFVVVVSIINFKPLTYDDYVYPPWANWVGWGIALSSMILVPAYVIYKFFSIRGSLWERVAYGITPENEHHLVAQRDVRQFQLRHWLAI
Text: as §1, §2, §3

With `O=c1ccc2ccc(O[C@@H]3C[C@H]4CCC[C@@H](C3)N4)cc2o1` [Compound A1, exo-7-(9-Aza-bicyclo[3.3.1]non-3-yloxy)-chromen-2-one hydrochloric acid salt] as the compound, how does the IC50 [1] read?
Its IC50 is 1.3 nM.

What about the IC50 [2] of the same compound?
Its IC50 is 240 nM.

And the IC50 [3]?
Its IC50 is 76 nM.

How did the IC50 [1] turn out when `CN1[C@@H]2CCC[C@H]1C[C@H](Oc1ccc3ccc(=O)oc3c1)C2` [Compound A2, exo-7-(9-Methyl-9-aza-bicyclo[3.3.1]non-3-yloxy)-chromen-2-one hydrochloric acid salt] was run?
Its IC50 is 2.9 nM.

What about the IC50 [2] of the same compound?
Its IC50 is 150 nM.

What about the IC50 ([3]; synaptosomes, 3H-NA, read-out: NA-uptake IC50) of the same compound?
The IC50 was 270 nM.
